Reference: US9282743B2, “Chemical compounds” (Syngenta Participations AG, priority 2011, dated 2016)

Columns and labels:
Assay type in all cases: in vivo
Lolium perenne (LOLPE) [1] = experiment: Example B6: post application on weeds, LOLPE; conditions: 312 h, after 13 days, 100 = total damage, 0 = no damage, read-out: LOLPE damage to plant
Protocol: (§1) Lolium perenne (LOLPE), Alopecurus myosuroides (ALOMY), Echinochloa crus-galli (ECHCG) and Avena fatua (AVEFA). Activity Against Weeds Seeds of a variety of test species were sown in standard soil in pots. After cultivation for 8 days under controlled conditions in a glasshouse (at 24/16° C., day/night; 14 hours light; 65% humidity), the plants were sprayed with an aqueous spray solution derived from the formulation of the technical active ingredient in acetone/water (50:50) solution containing 0.5% Tween 20 (polyoxyethelyene sorbitan monolaurate, CAS RN 9005-64-5). The test plants were then grown in a glasshouse under controlled conditions in a glasshouse (at 24/16° C., day/night; 14 hours light; 65% humidity) and watered twice daily. After 13 days, the test was evaluated (100=total damage to plant; 0=no damage to plant).

[2] = tested on: Alopecurus myosuroides (ALOMY); experiment: Example B6: post application on weeds, ALOMY; conditions: 312 h, after 13 days, 100 = total damage, 0 = no damage, read-out: ALOMY damage to plant
Protocol: as §1

[3] = tested on: Echinochloa crus-galli (ECHCG); experiment: Example B6: post application on weeds, ECHCG; conditions: 312 h, after 13 days, 100 = total damage, 0 = no damage, read-out: ECHCG damage to plant
Protocol: as §1

Avena fatua (AVEFA) [4] = experiment: Example B6: post application on weeds, AVEFA; conditions: 312 h, after 13 days, 100 = total damage, 0 = no damage, read-out: AVEFA damage to plant
Protocol: as §1

Lolium perenne (LOLPE) [5] = experiment: Example B7: pre application on weeds, LOLPE; conditions: 312 h, pre-emergence spray one day after sowing, evaluated after 13 days, read-out: Pre application on weeds, LOLPE (100=total damage to plant; 0=no damage to plant)
Protocol: as §1, with “one day” for “8 days”

[6] = tested on: Alopecurus myosuroides (ALOMY); experiment: Example B7: pre application on weeds, ALOMY; conditions: 312 h, pre-emergence spray one day after sowing, evaluated after 13 days, read-out: Pre application on weeds, ALOMY (100=total damage to plant; 0=no damage to plant)
Protocol: as §1, with “one day” for “8 days”

[7] = tested on: Echinochloa crus-galli (ECHCG); experiment: Example B7: pre application on weeds, ECHCG; conditions: 312 h, pre-emergence spray one day after sowing, evaluated after 13 days, read-out: Pre application on weeds, ECHCG (100=total damage to plant; 0=no damage to plant)
Protocol: as §1, with “one day” for “8 days”

Avena fatua (AVEFA) [8] = experiment: Example B7: pre application on weeds, AVEFA; conditions: 312 h, pre-emergence spray one day after sowing, evaluated after 13 days, read-out: Pre application on weeds, AVEFA (100=total damage to plant; 0=no damage to plant)
Protocol: as §1, with “one day” for “8 days”

Winter wheat (TRZAW) = experiment: Example B8: post application on wheat, with and without safener cloquintocet-mexyl; conditions: after 13 days, 100 = total damage, 0 = no damage
Protocol: Application with Safener (Cloquintocet-Mexyl) Winter wheat seeds with a seed treatment of cloquintocet-mexyl applied at a rate of 0.5 g/kg seeds were sown in standard soil in pots. After cultivation for 8 days under controlled conditions in a glasshouse (at 24/16° C., day/night; 14 hours light; 65% humidity), the plants were sprayed with an aqueous spray solution derived from the formulation of the technical active ingredient in acetone/water (50:50) solution containing 0.5% Tween 20 (polyoxyethelyene sorbitan monolaurate, CAS RN 9005-64-5). The test plants were then grown in a glasshouse under controlled conditions in a glasshouse (at 24/16° C., day/night; 14 hours light; 65% humidity) and watered twice daily. After 13 days, the test was evaluated (100=total damage to plant; 0=no damage to plant).

[9] = 250 g/ha + 0.5 g/kg seeds cloquintocet-mexyl

Structure (SMILES)	pest or weed control at 250 g/ha (Lolium perenne (LOLPE) [1]) [%]	pest or weed control at 250 g/ha [2] [%]	pest or weed control at 250 g/ha [3] [%]	pest or weed control at 250 g/ha (Avena fatua (AVEFA) [4]) [%]	pest or weed control at 250 g/ha (Lolium perenne (LOLPE) [5]) [%]	pest or weed control at 250 g/ha [6] [%]	pest or weed control at 250 g/ha [7] [%]	pest or weed control at 250 g/ha (Avena fatua (AVEFA) [8]) [%]	TRZAW damage to plant (Winter wheat (TRZAW); [9])	TRZAW damage to plant (Winter wheat (TRZAW); 250 g/ha, without safener)	TRZAW damage to plant (Winter wheat (TRZAW); 62.5 g/ha + 0.5 g/kg seeds cloquintocet-mexyl)	TRZAW damage to plant (Winter wheat (TRZAW); 62.5 g/ha, without safener)
CCOC(=O)Oc1c(-c2c(Cl)cc(C)cc2Br)c(=O)n2n1CCN(OC)CC2 [Compound P1.11]	80	80	60	70	90	100	80	70	10	60	–	–
CON1CCN2C(=O)C(c3c(C)cc(Cl)cc3Br)C(=O)N2CC1 [Compound P2.11]	70	70	60	60	80	80	70	50	20	50	–	–
CCOC(=O)Oc1c(-c2c(C)cc(C)cc2OC)c(=O)n2n1CCN(OC)CC2 [Compound P1.9]	90	90	100	90	80	70	70	80	60	80	–	–
CON1CCN2C(=O)C(c3c(C)cc(C)cc3C)C(=O)N2CC1 [Compound P2.1, 3-Methoxy-8-(2,4,6-trimethyl-phenyl)-tetrahydro-pyrazolo[1,2-a][1,2,5]triazepine-7,9-dione]	90	90	100	90	100	100	100	90	30	60	–	–
COc1cc(C)cc(C)c1C1C(=O)N2CCN(OC)CCN2C1=O [Compound P2.12]	80	80	90	80	70	80	60	60	30	70	–	–
C#Cc1cc(C)c(-c2c(OC(=O)OCC)n3n(c2=O)CCN(OC)CC3)c(C)c1 [Compound P1.8]	40	80	70	80	0	0	20	20	20	60	–	–
CCOC(=O)Oc1c(-c2c(C)cc(Cl)cc2C)c(=O)n2n1CCN(OC)CC2 [Compound P1.3]	60	80	60	80	10	0	20	0	20	70	–	–
CON1CCN2C(=O)C(c3c(C)cc(Cl)cc3C)C(=O)N2CC1 [Compound P2.2, 8-(4-Chloro-2,6-dimethyl-phenyl)-3-methoxy-tetrahydro-pyrazolo[1,2-a][1,2,5]triazepine-7,9-dione]	70	70	60	50	80	80	70	50	20	30	–	–
CCOC(=O)Oc1c(-c2c(C)cc(Br)cc2C)c(=O)n2n1CCN(OC)CC2 [Compound P1.10]	70	80	60	70	70	70	60	40	30	60	–	–
CCOC(=O)Oc1c(-c2c(C)cc(Cl)cc2Br)c(=O)n2n1CCN(OC)CC2 [Compound P1.12]	70	80	50	70	100	90	0	10	30	60	–	–
CON1CCN2C(=O)C(c3c(C)cc(Br)cc3C)C(=O)N2CC1 [Compound P2.9]	70	60	60	60	80	80	40	20	20	60	–	–
CCOC(=O)Oc1c(-c2cc(-c3ccc(Cl)cc3)ccc2C)c(=O)n2n1CCN(OC)CC2 [Compound P1.7]	70	70	80	100	0	0	0	0	–	–	40	80
C#Cc1cc(C)cc(C)c1C1C(=O)N2CCN(OC)CCN2C1=O [Compound P2.5]	100	90	100	100	100	100	90	100	10	80	–	–
C#Cc1cc(C)c(C2C(=O)N3CCN(OC)CCN3C2=O)c(C)c1 [Compound P2.8]	70	60	60	40	60	80	10	10	10	40	–	–
